The record followed here is US20250346575A1, “ISOINDOLINONE DERIVATIVE HAVING GLUTARIMIDE MOTHER NUCLEUS, AND USE THEREOF” (KOREA RESEARCH INSTITUTE OF CHEMICAL TECHNOLOGY, priority 2021, published 2025).

Molecules are shown by their SMILES.

T1 sequence (P15170 whole entry): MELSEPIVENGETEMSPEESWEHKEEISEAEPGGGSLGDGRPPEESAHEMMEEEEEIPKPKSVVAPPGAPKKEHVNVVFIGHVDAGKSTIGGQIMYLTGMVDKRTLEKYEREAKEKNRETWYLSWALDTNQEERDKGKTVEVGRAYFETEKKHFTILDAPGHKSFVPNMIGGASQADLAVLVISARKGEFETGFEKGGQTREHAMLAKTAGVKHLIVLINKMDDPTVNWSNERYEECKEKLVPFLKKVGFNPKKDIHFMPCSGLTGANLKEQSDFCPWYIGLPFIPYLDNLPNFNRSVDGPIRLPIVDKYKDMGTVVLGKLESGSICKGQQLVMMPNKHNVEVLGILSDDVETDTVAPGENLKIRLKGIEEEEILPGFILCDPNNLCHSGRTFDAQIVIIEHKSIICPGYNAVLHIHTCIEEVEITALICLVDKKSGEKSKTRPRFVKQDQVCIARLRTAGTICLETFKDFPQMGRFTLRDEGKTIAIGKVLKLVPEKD
T1 sequence (Q96SW2 whole entry): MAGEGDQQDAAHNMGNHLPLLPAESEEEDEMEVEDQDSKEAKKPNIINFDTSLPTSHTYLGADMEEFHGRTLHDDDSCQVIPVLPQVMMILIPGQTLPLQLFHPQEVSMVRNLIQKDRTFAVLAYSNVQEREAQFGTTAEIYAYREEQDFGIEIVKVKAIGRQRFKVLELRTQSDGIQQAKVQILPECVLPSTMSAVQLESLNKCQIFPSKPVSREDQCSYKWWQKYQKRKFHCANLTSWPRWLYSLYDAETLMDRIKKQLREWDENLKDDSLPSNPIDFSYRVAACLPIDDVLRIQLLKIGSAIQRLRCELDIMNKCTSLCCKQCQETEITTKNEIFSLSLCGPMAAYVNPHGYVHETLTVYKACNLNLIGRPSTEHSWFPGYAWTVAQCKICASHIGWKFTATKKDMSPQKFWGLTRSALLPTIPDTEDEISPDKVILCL
T1 sequence (Q16531 whole entry partner): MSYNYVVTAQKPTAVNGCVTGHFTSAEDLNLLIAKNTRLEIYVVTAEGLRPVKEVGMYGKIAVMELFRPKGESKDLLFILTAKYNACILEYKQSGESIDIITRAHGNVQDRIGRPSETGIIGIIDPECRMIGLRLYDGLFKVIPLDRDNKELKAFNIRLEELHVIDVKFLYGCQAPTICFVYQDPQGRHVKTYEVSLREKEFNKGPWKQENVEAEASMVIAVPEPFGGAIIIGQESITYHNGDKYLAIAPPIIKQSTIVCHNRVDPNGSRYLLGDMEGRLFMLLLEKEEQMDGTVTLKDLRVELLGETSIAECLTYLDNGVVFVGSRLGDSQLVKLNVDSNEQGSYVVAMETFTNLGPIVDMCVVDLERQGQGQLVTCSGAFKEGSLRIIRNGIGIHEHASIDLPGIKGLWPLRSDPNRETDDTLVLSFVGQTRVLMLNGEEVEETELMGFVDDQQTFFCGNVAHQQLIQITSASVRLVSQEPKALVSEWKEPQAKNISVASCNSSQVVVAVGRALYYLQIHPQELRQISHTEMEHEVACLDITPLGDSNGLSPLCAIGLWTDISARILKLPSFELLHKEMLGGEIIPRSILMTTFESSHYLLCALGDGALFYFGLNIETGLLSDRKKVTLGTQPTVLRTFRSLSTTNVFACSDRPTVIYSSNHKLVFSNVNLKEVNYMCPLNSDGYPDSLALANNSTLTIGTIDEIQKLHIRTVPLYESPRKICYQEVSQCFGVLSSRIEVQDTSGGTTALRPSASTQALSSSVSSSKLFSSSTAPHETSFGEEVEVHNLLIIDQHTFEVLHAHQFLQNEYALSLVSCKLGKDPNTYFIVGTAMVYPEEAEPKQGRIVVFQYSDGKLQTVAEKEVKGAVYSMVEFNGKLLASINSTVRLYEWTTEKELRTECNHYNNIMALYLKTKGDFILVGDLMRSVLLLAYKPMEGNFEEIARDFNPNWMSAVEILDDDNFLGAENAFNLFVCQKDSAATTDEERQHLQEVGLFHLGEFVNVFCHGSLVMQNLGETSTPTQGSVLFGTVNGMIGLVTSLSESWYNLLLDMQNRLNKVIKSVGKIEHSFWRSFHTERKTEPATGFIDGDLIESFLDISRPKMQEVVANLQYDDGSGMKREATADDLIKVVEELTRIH

The first data set addresses T1, GSPT1 protein (Homo sapiens, UniProt P15170+Q96SW2).
T1 construct: endogenous in cells; host or cells: KG-1 cells
The experiment in a line: Substrate protein degradation activity of CRBN (Western blot). It is filed as cell-based. Conditions: KG-1 cell lines, 6 hours, FIG. 1. The text has this: Examination was made to determine whether the compounds of the present disclosure bind to cereblon (CRBN) and inhibit the function of CRBN. In this regard, the compounds were investigated for degradation activity for Ikaros (IKZF1) protein (Chamberlain, P. P. et al., 2014) or GSPT1 protein (Matyskiela, M. E. et al., 2016) which CRBN protein degrades when binding to thalidomide and analogs thereof.
In order to assay the compounds according to the present disclosure for degradation activity for Ikaros (IKZF1) protein or GSPT1 protein, experiments were carried out as follows.
KG-1 cells were seeded at a density of 5×10^5 cells per well into 12-well plates, and each compound was added at predetermined concentration to the wells. After 6 hours, cell lysates were collected using TBSN buffer. The degradation activity of Ikaros protein was assessed using an antibody against Ikaros protein, and the degradation activity of GSPT1 protein was evaluated using an antibody against GSPT1 protein through Western blot analysis. In this regard, equal amounts of protein were loaded into each well of a 4-15% gradient gel, and after electrophoresis, proteins were transferred to a PVDF membrane. Each protein was then bound with primary antibodies, followed by the attachment of HRP-conjugated secondary antibodies, and developed using an HRP substrate.
A general note: A western blot detects proteins with antibodies after separation by electrophoresis.
In the case of `O=C1CCC(N2Cc3cc(CNC(=O)c4noc5cc(Cl)ccc45)ccc3C2=O)C(=O)N1` (stereo not drawn) [Compound 10, 6-Chloro-N-((2-(2,6-dioxopiperidin-3-yl)-1-oxoisoindolin-5-yl)methyl)benzo[d]isoxazole-3-carboxamide], the “degradation of GSPT1 protein” value is “selectively promote the degradation of GSPT1 protein”.

The test system of the next data set is Cancer cells (KG-1). The data set can be described thus: Cytotoxicity assay, WST-1, KG-1. Format: cell-based. As to conditions: Homo sapiens; KG-1 cells, 72 hours, WST-1. The protocol: To evaluate the effect of the compounds of the present disclosure on cancer cells, a cytotoxicity assay was conducted as follows.
Cancer cells (KG-1) were seeded at a concentration of 10,000 cells per well into a 96-well plate. Then, the cells were treated with predetermined concentrations of compounds of the Examples and comparative substances (comparative compounds 1, 2, 3). After 72 hours, the cells were incubated with WST-1 reagent for one hour. Then, absorbance was measured at 450 nm using a spectramax spectrophotometer to assess the degree of cancer cell apoptosis. The IC50 (μM) values were calculated using the measured values with the GraphPad Prism program and the measurements are summarized in Table 1.
The IC50 is the concentration that gives 50% inhibition. Read a low IC50 as greater potency in that assay. Consider `O=C1CCC(N2Cc3cc(CNC(=O)c4noc5cc(Cl)ccc45)ccc3C2=O)C(=O)N1` (stereo not drawn) [Compound 10, 6-Chloro-N-((2-(2,6-dioxopiperidin-3-yl)-1-oxoisoindolin-5-yl)methyl)benzo[d]isoxazole-3-carboxamide], for which the IC50 was in the range of 0.0001 to 0.01 µM.
`Cc1c(C(=O)NCc2ccc3c(c2)CN(C2CCC(=O)NC2=O)C3=O)nn(-c2ccccc2)c1-c1cccc(Cl)c1` (stereo not drawn) [Compound 42, 5-(3-chlorophenyl)-N-((2-(2,6-dioxopiperidin-3-yl)-1-oxoisoindolin-5-yl)methyl)-4-methyl-1-phenyl-1H-pyrazole-3-carboxamide] showed an IC50 of 0.0001 to 0.01 µM.
The compound `Cc1c(C(=O)NCc2ccc3c(c2)CN(C2CCC(=O)NC2=O)C3=O)nn(Cc2ccc(F)cc2)c1-c1cccc(Cl)c1` (stereo not drawn) [Compound 43] showed an IC50 of 0.0001 to 0.01 µM.
With `O=C1CCC(N2Cc3cc(CNC(=O)c4nc5cc(Cl)ccc5s4)ccc3C2=O)C(=O)N1` (stereo not drawn) [Compound 44, 5-chloro-N-((2-(2,6-dioxopiperidin-3-yl)-1-oxoisoindolin-5-yl)methyl)benzo[d]thiazole-2-carboxamide], the IC50 is 0.01 to 1 µM.
`Cc1cnc(C(=O)NCc2ccc3c(c2)CN(C2CCC(=O)NC2=O)C3=O)cc1-c1ccccc1` (stereo not drawn) [Compound 45, N-((2-(2,6-Dioxopiperidin-3-yl)-1-oxoisoindolin-5-yl)methyl)-5-methyl-4-phenylpicolinamide] had an IC50 of 0.0001 to 0.01 µM.
Turning to `O=C1CCC(N2Cc3cc(CNC(=O)c4cc(-c5ccccc5)c(Cl)cn4)ccc3C2=O)C(=O)N1` (stereo not drawn) [Compound 46, 5-Chloro-N-((2-(2,6-dioxopiperidin-3-yl)-1-oxoisoindolin-5-yl)methyl)-4-phenylpicolinamide], the half-maximal inhibitory concentration (IC50) lay within 0.0001 to 0.01 µM.
Same read-out and setting: for `O=C1CCC(N2Cc3cc(CNC(=O)c4ccccc4-c4ccccc4)ccc3C2=O)C(=O)N1` (stereo not drawn) [Compound 52, N-((2-(2,6-Dioxopiperidin-3-yl)-1-oxoisoindolin-5-yl)methyl)-[1,1′-biphenyl]-2-carboxamide] the value was 10 to 50 µM; for `O=C1CCC(N2Cc3cc(CNC(=O)C4(c5ccc(Cl)cc5)CCCC4)ccc3C2=O)C(=O)N1` (stereo not drawn) [Compound 53, 1-(4-Chlorophenyl)-N-((2-(2,6-dioxopiperidin-3-yl)-1-oxoisoindolin-5-yl)methyl)cyclopentane-1-carboxamide], 10 to 50 µM; for `O=C1CCC(N2Cc3cc(CNC(=O)C4(c5ccccc5)CCCC4)ccc3C2=O)C(=O)N1` (stereo not drawn) [Compound 54, N-((2-(2,6-Dioxopiperidin-3-yl)-1-oxoisoindolin-5-yl)methyl)-1-phenylcyclopentane-1-carboxamide], 10 to 50 µM.
In turn, `O=C1CCC(N2Cc3cc(CNC(=O)C4CCN(c5ccccc5)C4=O)ccc3C2=O)C(=O)N1` (stereo not drawn) [Compound 55, N-((2-(2,6-Dioxopiperidin-3-yl)-1-oxoisoindolin-5-yl)methyl)-2-oxo-1-phenylpyrrolidine-3-carboxamide] came in with an IC50 of 1 to 10 µM.

The same data set, now with this note: R1 bicyclic heteroaryl compared to monocyclic aryl (comparative substance) or heteroaryl (Compounds 37 and 38).
In the case of `O=C1CCC(N2Cc3cc(CNC(=O)c4noc5cc(Cl)ccc45)ccc3C2=O)C(=O)N1` (stereo not drawn) [Compound 10, 6-Chloro-N-((2-(2,6-dioxopiperidin-3-yl)-1-oxoisoindolin-5-yl)methyl)benzo[d]isoxazole-3-carboxamide], the “cytotoxic activity against KG-1 and NCI-H1155 cancer cells (in words)” value is “more potent cytotoxic activity”.
